# Laboratory results: PubChem BioAssay (NCI)
#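 Where inhibition never reached the appropriate level, the endpoint shown equals the highest concentration tested. Otherwise, values were interpolated linearly from a five-concentration, 48-hour dose response in 96-well plates. GI50: concentration for 50% inhibition of growth. Definition used: TGI = concentration required for complete inhibition of growth.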
# Tested on: MDA-MB-468 breast
# Experiment: NCI-60 cell line screen, 48 h
Compound,GI50 [µM],TGI [µM]
Nc1ccccc1SC1CC(=O)N(c2ccc(Cl)c(Cl)c2)C1=O (stereo unspecified),18.4,> 100
O=C(CCCCCCNC(=O)C(O)(O)C(F)(F)F)Nc1ncc(-c2ccccc2)s1,0.748,10.9
CC/C=C/C/C=C/C/C=C/C/C=C/C/C=C/C/C=C/CCC(=O)Nc1ccn([C@@H]2O[C@H](CO)[C@@H](O)C2(F)F)c(=O)n1,0.384,> 64.6
O=c1oc2ccc(Br)cc2c(=O)n1-c1ccc(F)cc1F,2.09,5.92
O=C(NO)c1ccc(CN(c2cnccn2)c2cnccn2)cc1,10.5,28.4
CN1CCN(c2ccc(Nc3ncc4cc(C#N)c(=O)n(C5CCCC5)c4n3)cc2)CC1,3.46,> 100
C[C@]12CC[C@@H]3c4ccc(O)c([N+](=O)[O-])c4CC[C@H]3[C@@H]1CC[C@@H]2NS(=O)(=O)c1cccc(Br)c1,2.74,7.69
Cn1c(=O)c2c(ncn2CC(=O)Nc2ccc(-c3ccccc3)nn2)n(C)c1=O,31.4,> 100
COc1ccc(-c2csc(NC(=O)CSc3nc(C)c(-c4ccccc4)n3Nc3ccccc3)n2)cc1,> 100,> 100
O=C(NCc1ccc(S(=O)(=O)c2cc(F)cc(F)c2)cc1)c1ccc2nccn2c1,9.27,> 100
C/C(=N\NC(=S)N1CC2CCC(CC2)C1)c1ccccn1,< 0.01,0.104
Cn1cc(-c2ccc(-c3cncc(Cl)c3N3CCC4(CCNC4=O)CC3)cc2)cn1,19.9,> 100
CCCCCc1ccc(S(=O)(=O)Nc2cc(-c3csc(NC(C)=O)n3)ccc2N2CCN(C)CC2)cc1,3.73,8.42
CN1CCN(Cc2ccc(NC(=O)c3cncc(C#Cc4cnc5[nH]ncc5c4)c3)cc2C(F)(F)F)CC1,1.74,13.5
COc1ccc(Cc2cnc(NC(=O)c3ccc4c(c3)OCCO4)s2)cc1,0.0376,24.7
Cc1cc(C)n(-c2nnc3n2N=C(c2ccc(-c4ccccc4)cc2)CS3)n1,2.27,6.76
CC1C(c2ccc3c(c2)OCO3)c2cc3c(cc2OC1N1CCOCC1)OCO3 (stereo unspecified),19.6,60.3
COc1ccc2c(c1)C(C)Cc1c(ncnc1-n1cnc3cc(C)ccc31)N2C (stereo unspecified),0.0341,18.9
N#Cc1ccc(OC(=O)Nc2ccc(Cl)c(Cl)c2)cc1,3.13,15.9

Compound,GI50 [µM],TGI [µM]
COC(C(=O)[C@@H](O)[C@@H](C)O)[C@@H]1Cc2cc3cc(O[C@H]4C[C@@H](O[C@H]5C[C@@H](O)[C@H](O)C(C)O5)[C@H](O)C(C)O4)c(C)c(O)c3c(O)c2C(=O)[C@H]1O[C@H]1C[C@@H](O[C@H]2C[C@@H](O[C@H]3C[C@@H](O)[C@H](OC)C(C)O3)[C@@H](O)C(C)O2)[C@H](O)C(C)O1 (stereo partly specified),0.0329,0.259
CCN(CC)c1cc2oc3cc(N)cc(=N)c-3nc2cc1C,2.59,9.37
COC(=O)CCC1=C(CC(=O)OC)C(C)=N/C1=C\c1[nH]c(-c2ccc[nH]2)cc1OC,3.48,17
COc1ccc2c(c1)c(-c1cc(N)n3nc(-c4cn(C)c5ccc(OC)cc45)cc3n1)cn2C,1.87,3.66
O=C(N/N=C/c1ccc([N+](=O)[O-])o1)c1ccc(O)cc1,2.44,10.7
CCCCCCCCCCN1CCC(N2CCCCC2)CC1,1.44,3.01
Clc1cc(Cl)cc(Nc2ccc3cc(OCCCN4CCOCC4)ccc3n2)c1,2.2,6.23
O=C(N/N=C/c1c(Cl)cccc1Cl)c1ccc(C(F)(F)F)nc1Nc1cccc(C(F)(F)F)c1,0.52,3.62
COc1ccc2c(Oc3ccc(NC(=O)c4c(C)n(CC(C)(C)O)n(-c5ccccc5)c4=O)nc3)ccnc2c1,16.1,> 96.6
COC[C@]12CC[C@@H](C)[C@H](C)[C@H]1C1=CC[C@@H]3[C@@]4(C)CCCNC(C)(C)[C@@H]4CC[C@@]3(C)[C@]1(C)CC2,1.71,3.43
CCCCCc1ccc(S(=O)(=O)Nc2cc(-c3csc(NC(=O)CN4CCN(CCO)CC4)n3)ccc2OC)cc1,1.75,3.6
Cc1c2ccncc2c(C)c2c1[nH]c1ccccc12,1.16,8.74
NC(=S)N/N=C/c1cc(-c2cccc(N)c2)ccn1,1.43,4.49
COc1c(O)c(O)cc2c1-c1ccc(OC)c(=O)cc1C(NC(C)=O)CC2 (stereo unspecified),16.9,> 100
O=C1C(c2ccccc2)=C(N2CCc3ccccc32)OC1(Cl)Cl,1.63,3.25
O=C(Nc1ccc(-n2cc(-c3ccncc3)c(-c3ccc(O)c(Cl)c3)n2)cc1)Nc1cccc(Cl)c1Cl,9.23,> 32.5
COc1ccc(/C=C(/c2ccccc2)[N+](=O)[O-])cc1,1.46,3.31
O=C(OCc1ccc2c(Cl)cc(Cl)c(O)c2n1)N1CCN(C(=O)c2cc3cc(F)ccc3[nH]2)CC1,0.558,> 27.9
O=C(Nc1ccc(Cl)c(Cl)c1)Nc1ccccc1O,6.26,33.6
